Measured values: the NIST ThermoML archive (doi:10.1021/acs.jced.9b00026)

Legend:
[1] = wn = mass fraction of the nth substance listed; details: for surface tension liquid-gas: Ring tensiometer; for mass density: 101 kPa, Liquid, Vibrating tube method
[2] = Ring tensiometer

O [water] + CSCC[C@H](N)C(=O)O
[1], w2 = 0
Details | surface tension liquid-gas [mN/m]
298 K | 71.52
308 K | 69.94
318 K | 68.54
328 K | 66.78

O [water] + NC(=O)CC[C@H](N)C(=O)O
[1], w2 = 0
Details | surface tension liquid-gas [mN/m]
298 K | 71.06
308 K | 69.1
318 K | 68.31
328 K | 66.41

O [water] + C[C@H](O)C(=O)O
[1], w2 = 0
Details | surface tension liquid-gas [mN/m]
298 K | 71.53
308 K | 70.02
318 K | 68.48
328 K | 67.18

O [water]
[2]
Details | surface tension liquid-gas
298 K | 71.52 mN/m [middle of 7 runs]
308 K | 69.73 mN/m [middle of 7 runs]
313 K | 69.89 mN/m
318 K | 68.48 mN/m [middle of 7 runs]
328 K | 66.76 mN/m [middle of 7 runs]

O [water] + O=C(O)[C@@H]1CCCN1
[1], w2 = 0
Details | surface tension liquid-gas [mN/m]
298 K | 71.61
308 K | 70.1
318 K | 68.56
328 K | 66.76

CSCC[C@H](N)C(=O)O [L-methionine] + O
[1]
Details | mass density, w1 = 0.005 [kg/m3] | surface tension liquid-gas, w1 = 0.005 [mN/m] | surface tension liquid-gas, w1 = 0.01 [mN/m] | surface tension liquid-gas, w1 = 0.02 [mN/m] | surface tension liquid-gas, w1 = 0.03 [mN/m] | surface tension liquid-gas, w1 = 0.04001 [mN/m]
298 K | 998.5 | 71.39 | 71.3 | 71.02 | 70.77 | 70.61
308 K | – | 69.89 | 69.69 | 69.45 | 69.15 | 68.9
318 K | – | 68.4 | 68.3 | 68.06 | 67.74 | 67.28
328 K | – | 66.65 | 66.56 | 66.32 | 65.78 | 64.97

N[C@@H](CO)C(=O)O [L-serine] + O
[1]
Details | mass density, w1 = 0.005 [kg/m3] | surface tension liquid-gas, w1 = 0.00504 [mN/m] | surface tension liquid-gas, w1 = 0.01 [mN/m] | surface tension liquid-gas, w1 = 0.02001 [mN/m] | surface tension liquid-gas, w1 = 0.03 [mN/m] | surface tension liquid-gas, w1 = 0.03999 [mN/m] | surface tension liquid-gas, w1 = 0.05 [mN/m]
298 K | 999.1 | 71.53 | 71.64 | 71.7 | 71.85 | 71.98 | 72.12
308 K | – | 69.85 | 69.98 | 70.15 | 70.31 | 70.44 | 70.56
318 K | – | 68.58 | 68.6 | 68.84 | 68.87 | 69.09 | 69.23
328 K | – | 66.76 | 66.84 | 67.01 | 67.19 | 67.28 | 67.5

C[C@H](O)C(=O)O [(S)-2-hydroxypropanoic acid] + O
[1]
Details | mass density, w1 = 0.01 [kg/m3] | surface tension liquid-gas, w1 = 0.002 [mN/m] | surface tension liquid-gas, w1 = 0.004 [mN/m] | surface tension liquid-gas, w1 = 0.006 [mN/m] | surface tension liquid-gas, w1 = 0.008 [mN/m]
298 K | 999.5 | 70.66 | 69.69 | 68.73 | 67.69
308 K | – | 69.32 | 68.36 | 67.63 | 67.06
318 K | – | 68.04 | 67.36 | 66.46 | 65.96
328 K | – | 67.07 | 66.17 | 65.34 | 64.92

NC(=O)CC[C@H](N)C(=O)O [L-glutamine] + O
[1]
Details | mass density, w1 = 0.005 [kg/m3] | surface tension liquid-gas, w1 = 0.00499 [mN/m] | surface tension liquid-gas, w1 = 0.00998 [mN/m] | surface tension liquid-gas, w1 = 0.01501 [mN/m] | surface tension liquid-gas, w1 = 0.02001 [mN/m] | surface tension liquid-gas, w1 = 0.02499 [mN/m] | surface tension liquid-gas, w1 = 0.02999 [mN/m]
298 K | 998.8 | 71.43 | 71.49 | 71.53 | 71.55 | 71.55 | 71.55
308 K | – | 69.29 | 69.65 | 69.78 | 69.89 | 69.96 | 70.02
318 K | – | 68.34 | 68.42 | 68.59 | 68.58 | 68.64 | 68.67
328 K | – | 66.55 | 66.69 | 66.76 | 66.85 | 66.98 | 67.04

CCO [ethanol] + O
surface tension liquid-gas [mN/m], [1]
Details | w1 = 0.05 | w1 = 0.1 | w1 = 0.15 | w1 = 0.2
298 K | 55.14 | 47.34 | 41.96 | 38.2
313 K | 53.13 | 45.92 | 40.41 | 36.71

O=C(O)[C@@H]1CCCN1 [L-proline] + O
[1]
Details | mass density, w1 = 0.02 [kg/m3] | surface tension liquid-gas, w1 = 0.01996 [mN/m] | surface tension liquid-gas, w1 = 0.03996 [mN/m] | surface tension liquid-gas, w1 = 0.05995 [mN/m] | surface tension liquid-gas, w1 = 0.07996 [mN/m] | surface tension liquid-gas, w1 = 0.09995 [mN/m]
298 K | 1002.6 | 71.56 | 71.56 | 71.55 | 71.5 | 71.45
308 K | – | 70.14 | 70.13 | 70.12 | 70.05 | 69.95
318 K | – | 68.51 | 68.51 | 68.46 | 68.44 | 68.4
328 K | – | 66.8 | 66.79 | 66.75 | 66.67 | 66.46

O [water] + O=C(O)CC(O)C(=O)O
[1], w2 = 0
Details | surface tension liquid-gas [mN/m]
298 K | 71.52
308 K | 69.73
318 K | 68.3
328 K | 66.81

CC(C)[C@H](N)C(=O)O [L-valine] + O
[1]
Details | mass density, w1 = 0.005 [kg/m3] | surface tension liquid-gas, w1 = 0.005 [mN/m] | surface tension liquid-gas, w1 = 0.01 [mN/m] | surface tension liquid-gas, w1 = 0.02 [mN/m] | surface tension liquid-gas, w1 = 0.03 [mN/m] | surface tension liquid-gas, w1 = 0.04 [mN/m]
298 K | 998.1 | 70.53 | 70.5 | 69.48 | 68.4 | 67.12
308 K | – | 69.19 | 68.93 | 68.17 | 67.08 | 66.41
318 K | – | 67.61 | 67.61 | 66.54 | 65.36 | 64.53
328 K | – | 66.3 | 66.02 | 65.14 | 63.84 | 63.26

O=C(O)CC(O)C(=O)O (stereo not drawn) [hydroxybutanedioic acid] + O
[1]
Details | mass density, w1 = 0.01 [kg/m3] | surface tension liquid-gas, w1 = 0.01049 [mN/m] | surface tension liquid-gas, w1 = 0.02026 [mN/m] | surface tension liquid-gas, w1 = 0.03004 [mN/m] | surface tension liquid-gas, w1 = 0.04002 [mN/m] | surface tension liquid-gas, w1 = 0.06001 [mN/m] | surface tension liquid-gas, w1 = 0.07998 [mN/m] | surface tension liquid-gas, w1 = 0.1 [mN/m]
298 K | 1000.8 | 71.39 | 71.2 | 71.09 | 70.92 | 70.61 | 70.44 | 70.2
308 K | – | 69.64 | 69.49 | 69.42 | 69.28 | 69.18 | 68.83 | 68.62
318 K | – | 68.16 | 68.16 | 68.11 | 67.78 | 67.63 | 67.49 | 67.25
328 K | – | 66.67 | 66.54 | 66.48 | 66.43 | 66.24 | 66.05 | 65.89

O [water] + N[C@@H](CO)C(=O)O
[1], w2 = 0
Details | surface tension liquid-gas [mN/m]
298 K | 71.46
308 K | 69.71
318 K | 68.51
328 K | 66.66

O [water] + CCO
[1], w2 = 0
Details | surface tension liquid-gas [mN/m]
298 K | 72.04
313 K | 69.89
